{"source": "DBAASP", "test_in_all_cases": "≥ marks a high value that may be exact or a test limit, other limits are often not marked, values filed in µg/mL are converted to µM", "key": {"[1]": {"system": "Escherichia coli ATCC 25922"}, "[2]": {"system": "Staphylococcus aureus ATCC 29213"}, "[3]": {"system": "Pseudomonas aeruginosa ATCC 27853"}, "[4]": {"system": "Escherichia coli"}, "[5]": {"system": "Staphylococcus epidermidis ATCC 12228"}, "[6]": {"system": "Staphylococcus aureus"}, "[7]": {"system": "Pseudomonas aeruginosa"}}}
{"smiles": "CC[C@H](C)[C@H](NC(=O)[C@H](CCCCN)NC(=O)[C@H](CCCCN)NC(=O)[C@H](C)N)C(=O)N[C@@H](CCCN=C(N)N)C(=O)N[C@H](C(=O)N[C@@H](CCCN=C(N)N)C(=O)N[C@@H](CC(C)C)C(=O)N[C@@H](CO)C(=O)N[C@@H](C)C(=O)O)C(C)C", "note": "[AKKIRVRLSA]", "values": [{"measurement": "MIC", "setting": "[1]", "value": 14, "unit": "µM"}, {"measurement": "MIC", "setting": "[2]", "value": "> 56.1", "unit": "µM"}, {"measurement": "MIC", "setting": "[3]", "value": 14, "unit": "µM"}]}
{"smiles": "CC(C)C[C@H](NC(=O)[C@H](CCCCN)NC(=O)[C@@H]1CSSC[C@H](N)C(=O)N[C@@H](CCCCN)C(=O)N[C@@H](CCCCN)C(=O)N[C@@H](CC(C)C)C(=O)N[C@@H](CC(C)C)C(=O)N[C@@H](CCCCN)C(=O)N[C@@H](CC(C)C)C(=O)N[C@@H](CC(C)C)C(=O)N[C@@H](CCCCN)C(=O)N[C@@H](CCCCN)C(=O)N[C@@H](CC(C)C)C(=O)N1)C(=O)N[C@@H](C)C(=O)NCC(=O)O", "note": "[CKKLLKLLKKLCKLAG]", "values": [{"measurement": "MIC", "setting": "[1]", "value": 5, "unit": "µM"}, {"measurement": "MIC", "setting": "[2]", "value": "> 40", "unit": "µM"}, {"measurement": "MIC", "setting": "[4]", "value": 20, "unit": "µM"}]}
{"smiles": "CC[C@H](C)[C@H](NC(=O)[C@H](CCSC)NC(=O)[C@H](C)NC(=O)[C@@H]1CCCN1C(=O)[C@@H](NC(=O)[C@@H](NC(=O)[C@H](CCCCN)NC(=O)[C@@H](NC(=O)[C@H](CC(C)C)NC(=O)CNC(=O)CN)[C@@H](C)CC)[C@@H](C)CC)C(C)C)C(=O)N[C@H]1CSSC[C@@H](C(=O)O)NC(=O)[C@H](CCCCN)NC(=O)[C@H](CCCCN)NC(=O)[C@H]([C@@H](C)O)NC(=O)[C@H](C(C)C)NC(=O)[C@H](C)NC1=O", "note": "[GGLIKIVPAMICAVTKKC]", "values": [{"measurement": "MIC", "setting": "[1]", "value": "> 139", "unit": "µM"}, {"measurement": "MIC", "setting": "[2]", "value": 139, "unit": "µM"}, {"measurement": "MIC", "setting": "[3]", "value": "> 139", "unit": "µM"}]}
{"smiles": "CC[C@H](C)[C@H](NC(=O)CN)C(=O)NCC(=O)N[C@@H](CCCCN)C(=O)N[C@@H](Cc1ccccc1)C(=O)N[C@@H](CC(C)C)C(=O)N[C@@H](Cc1cnc[nH]1)C(=O)N[C@@H](CCCCN)C(=O)N[C@H](C(=O)NCC(=O)N[C@@H](CO)C(=O)N[C@@H](Cc1ccccc1)C(=O)N[C@H](C(=O)N[C@@H](CCCCN)C(=O)N[C@@H](CO)C(=O)N[C@@H](Cc1c[nH]c2ccccc12)C(=O)N[C@@H](CCCCN)C(=O)NCC(=O)N[C@@H](CCC(=O)O)C(=O)N[C@H](C(=O)N[C@@H](CCSC)C(=O)N[C@@H](CC(N)=O)C(=O)N[C@@H](CO)C(N)=O)[C@@H](C)CC)[C@@H](C)CC)C(C)C", "note": "[GIGKFLHKVGSFIKSWKGEIMNS]", "values": [{"measurement": "MIC", "setting": "[1]", "value": 5, "unit": "µM"}, {"measurement": "MIC", "setting": "[2]", "value": 73, "unit": "µM"}, {"measurement": "MIC", "setting": "[3]", "value": 51.3, "unit": "µM"}]}
{"smiles": "CC[C@H](C)[C@H](NC(=O)CN)C(=O)N[C@@H](CCCCN)C(=O)N[C@@H](CCCCN)C(=O)N[C@@H](Cc1c[nH]c2ccccc12)C(=O)N[C@@H](CC(C)C)C(=O)N[C@@H](Cc1cnc[nH]1)C(=O)N[C@@H](CO)C(=O)N[C@@H](C)C(=O)N[C@@H](CCCCN)C(=O)N[C@@H](CCCCN)C(=O)N1CCC[C@H]1C(=O)N1CCC[C@H]1C(=O)N[C@@H](CCCCN)C(=O)N[C@@H](CCCCN)C(=O)N[C@@H](Cc1ccccc1)C(=O)N[C@H](C(=O)N[C@@H](CCCCN)C(=O)N[C@@H](CCCCN)C(=O)N[C@H](C(=O)N[C@@H](CCSC)C(=O)N[C@@H](CC(N)=O)C(=O)N[C@@H](CO)C(N)=O)[C@@H](C)CC)C(C)C", "note": "[GIKKWLHSAKKPPKKFVKKIMNS]", "values": [{"measurement": "MIC", "setting": "[1]", "value": "> 80", "unit": "µM"}, {"measurement": "MIC", "setting": "[5]", "value": 10, "unit": "µM"}]}
{"smiles": "CC[C@H](C)[C@H](N)C(=O)N[C@H](C(=O)N[C@@H](CO)C(=O)N[C@H](C(=O)N[C@H](C(=O)NCC(=O)N[C@@H](CCCCN)C(=O)N[C@@H](CC(C)C)C(=O)N1CCC[C@H]1C(=O)N[C@@H](CCCCN)C(=O)N[C@@H](Cc1c[nH]c2ccccc12)C(=O)N[C@H](C(=O)N[C@H](C(=O)N[C@@H](CCCCN)C(=O)N[C@H](C(=O)N[C@H](C(=O)N[C@@H](CC(N)=O)C(=O)N[C@@H](CCCCN)C(=O)N[C@@H](Cc1ccccc1)C(=O)N[C@H](C(=O)N[C@@H](CCCCN)C(=O)N[C@@H](CCCCN)C(=O)O)[C@@H](C)O)C(C)C)[C@@H](C)O)[C@@H](C)CC)[C@@H](C)CC)[C@@H](C)CC)[C@@H](C)O)[C@@H](C)CC", "note": "[IISTIGKLPKWIIKTVNKFTKK]", "values": [{"measurement": "MIC", "setting": "[4]", "value": 2.7, "unit": "µM"}, {"measurement": "MIC", "setting": "[6]", "value": 22, "unit": "µM"}]}
{"smiles": "CC(=O)N[C@@H](CCCCN)C(=O)N[C@@H](CC(C)C)C(=O)N[C@@H](CC(C)C)C(=O)N[C@@H](CCCCN)C(=O)N[C@@H](CC(C)C)C(=O)N[C@@H](CC(C)C)C(=O)N[C@@H](CCCCN)C(=O)N[C@@H](CCCCN)C(=O)N[C@@H](CC(C)C)C(=O)N[C@@H](CC(C)C)C(=O)N[C@@H](CCCCN)C(=O)N1CCC[C@H]1C(=O)N[C@@H](CC(C)C)C(=O)N[C@@H](CCCCN)C(N)=O", "note": "[KLLKLLKKLLKPLK]", "values": [{"measurement": "MIC", "setting": "[1]", "value": 28.3, "unit": "µM"}, {"measurement": "MIC", "setting": "[2]", "value": 10, "unit": "µM"}]}
{"smiles": "CC(=O)N[C@@H](CCCCN)C(=O)N[C@@H](CC(C)C)C(=O)N[C@@H](CC(C)C)C(=O)N[C@@H](CCCCN)C(=O)N[C@@H](CC(C)C)C(=O)N[C@@H](CC(C)C)C(=O)N1CCC[C@H]1C(=O)N[C@@H](CCCCN)C(=O)N[C@@H](CC(C)C)C(=O)N[C@@H](CC(C)C)C(=O)N[C@@H](CCCCN)C(=O)N[C@@H](CC(C)C)C(=O)N[C@@H](CC(C)C)C(=O)N[C@@H](CCCCN)C(N)=O", "note": "[KLLKLLPKLLKLLK]", "values": [{"measurement": "MIC", "setting": "[1]", "value": 10, "unit": "µM"}, {"measurement": "MIC", "setting": "[2]", "value": 5, "unit": "µM"}]}
{"smiles": "CC[C@H](C)[C@H](NC(=O)[C@H](Cc1ccccc1)NC(=O)[C@H](CO)NC(=O)[C@H](CCCCN)NC(=O)[C@H](Cc1c[nH]c2ccccc12)NC(=O)[C@@H](N)CCCCN)C(=O)N[C@@H](CCCCN)C(=O)N[C@@H](CCCCN)C(=O)N[C@@H](CC(C)C)C(=O)N[C@@H](CC(C)C)C(=O)N[C@@H](CO)C(=O)N[C@@H](CCCCN)C(=O)N[C@@H](Cc1ccccc1)C(=O)N[C@@H](CC(C)C)C(=O)N[C@@H](Cc1cnc[nH]1)C(=O)N[C@@H](CO)C(=O)N[C@@H](C)C(=O)N[C@@H](CCCCN)C(=O)N[C@@H](CCCCN)C(=O)N[C@@H](Cc1ccccc1)C(N)=O", "note": "[KWKSFIKKLLSKFLHSAKKF]", "values": [{"measurement": "MIC", "setting": "[7]", "value": 5.07, "unit": "µM"}]}
{"smiles": "CC[C@H](C)[C@H](NC(=O)[C@H](Cc1ccccc1)NC(=O)[C@H](CO)NC(=O)[C@H](CCCCN)NC(=O)[C@H](Cc1c[nH]c2ccccc12)NC(=O)[C@@H](N)CCCCN)C(=O)N[C@@H](CCCCN)C(=O)N[C@@H](CCCCN)C(=O)N[C@@H](CC(C)C)C(=O)N[C@H](C(=O)N[C@@H](CO)C(=O)N[C@@H](CCCCN)C(=O)N[C@@H](Cc1ccccc1)C(=O)N[C@@H](CC(C)C)C(=O)N[C@@H](Cc1cnc[nH]1)C(=O)N[C@@H](CC(C)C)C(=O)N[C@@H](C)C(=O)N[C@@H](CCCCN)C(=O)N[C@@H](CCCCN)C(=O)N[C@@H](Cc1ccccc1)C(N)=O)[C@@H](C)O", "note": "[KWKSFIKKLTSKFLHLAKKF]", "values": [{"measurement": "MIC", "setting": "[7]", "value": 5.04, "unit": "µM"}]}
{"smiles": "CC(C)[C@H](NC(=O)[C@H](Cc1c[nH]c2ccccc12)NC(=O)[C@H](CCCCN)NC(=O)[C@@H](N)CCCN=C(N)N)C(=O)N[C@@H](CCCCN)C(=O)N[C@@H](Cc1c[nH]c2ccccc12)C(=O)N[C@@H](CCCN=C(N)N)C(=O)N[C@@H](CC(N)=O)C(=O)N[C@@H](CCCN=C(N)N)C(=O)O", "note": "[RKWVKWRNR]", "values": [{"measurement": "MIC", "setting": "[1]", "value": 94.1, "unit": "µM"}, {"measurement": "MIC", "setting": "[2]", "value": 23.5, "unit": "µM"}]}
{"smiles": "NC(=O)[C@H](Cc1ccccc1)NC(=O)[C@H](Cc1ccccc1)NC(=O)[C@H](Cc1ccccc1)NC(=O)[C@@H]1CCCN1C(=O)[C@H](CCCN=C(N)N)NC(=O)[C@@H]1CCCN1C(=O)[C@H](CCCN=C(N)N)NC(=O)[C@@H]1CCCN1C(=O)[C@H](CCCN=C(N)N)NC(=O)[C@@H]1CCCN1C(=O)[C@H](CCCN=C(N)N)NC(=O)[C@@H](N)CCCN=C(N)N", "note": "[RRPRPRPRPFFF]", "values": [{"measurement": "MIC", "setting": "[1]", "value": 80, "unit": "µM"}, {"measurement": "MIC", "setting": "[2]", "value": 40, "unit": "µM"}, {"measurement": "MIC", "setting": "[3]", "value": "> 160", "unit": "µM"}]}
